Data: PubChem BioAssay (NCI)
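Tested at 5 concentrations; 48 h exposure; 96-well plates; endpoints linearly interpolated, else capped at highest concentration. TGI marks complete inhibition of growth.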

Tests used:
Assay in all cases: NCI anticancer screen, dose series, 48 h
OVCAR-5 ovarian = tested on: OVCAR-5 ovarian
KM12 colon = tested on: KM12 colon
CCRF-CEM leukemia = tested on: CCRF-CEM leukemia
DU-145 prostate = tested on: DU-145 prostate
MOLT-4 leukemia = tested on: MOLT-4 leukemia
A549 NSCLC = tested on: A549 NSCLC
HT29 colon = tested on: HT29 colon
UACC-62 melanoma = tested on: UACC-62 melanoma
SNB-75 CNS = tested on: SNB-75 CNS
ACHN renal = tested on: ACHN renal
HOP-92 NSCLC = tested on: HOP-92 NSCLC
BT-549 breast = tested on: BT-549 breast
NCI-H23 lung = tested on: NCI-H23 lung
HS 578T breast = tested on: HS 578T breast
MDA-MB-435 = tested on: MDA-MB-435
MDA-N = tested on: MDA-N
U251 CNS = tested on: U251 CNS
RPMI-8226 leukemia = tested on: RPMI-8226 leukemia
SK-MEL-2 melanoma = tested on: SK-MEL-2 melanoma
LOX IMVI melanoma = tested on: LOX IMVI melanoma
SNB-19 CNS = tested on: SNB-19 CNS
IGROV1 ovarian = tested on: IGROV1 ovarian
EKVX NSCLC = tested on: EKVX NSCLC
OVCAR-3 ovarian = tested on: OVCAR-3 ovarian
SF-295 CNS = tested on: SF-295 CNS
PC-3 prostate = tested on: PC-3 prostate
CAKI-1 renal = tested on: CAKI-1 renal
UACC-257 melanoma = tested on: UACC-257 melanoma
SF-539 CNS = tested on: SF-539 CNS
SF-268 CNS = tested on: SF-268 CNS
OVCAR-8 ovarian = tested on: OVCAR-8 ovarian
HOP-62 NSCLC = tested on: HOP-62 NSCLC
SR leukemia = tested on: SR leukemia
786-0 renal = tested on: 786-0 renal
K-562 leukemia = tested on: K-562 leukemia
HCC-2998 colon = tested on: HCC-2998 colon
COLO 205 colon = tested on: COLO 205 colon
MALME-3M melanoma = tested on: MALME-3M melanoma
T-47D breast = tested on: T-47D breast
NCI-H460 lung = tested on: NCI-H460 lung
TK-10 renal = tested on: TK-10 renal
SK-MEL-28 melanoma = tested on: SK-MEL-28 melanoma
HCT-15 colon = tested on: HCT-15 colon
RXF 393 renal = tested on: RXF 393 renal
SK-MEL-5 melanoma = tested on: SK-MEL-5 melanoma
SW-620 colon = tested on: SW-620 colon
UO-31 renal = tested on: UO-31 renal
HCT-116 colon = tested on: HCT-116 colon
MDA-MB-231 breast = tested on: MDA-MB-231 breast
NCI-H522 lung = tested on: NCI-H522 lung
SK-OV-3 ovarian = tested on: SK-OV-3 ovarian
SN12C renal = tested on: SN12C renal
A498 renal = tested on: A498 renal
M14 melanoma = tested on: M14 melanoma
NCI-H226 lung = tested on: NCI-H226 lung
MCF7 breast = tested on: MCF7 breast
OVCAR-4 ovarian = tested on: OVCAR-4 ovarian
NCI/ADR-RES ovarian = tested on: NCI/ADR-RES ovarian
HL-60(TB) leukemia = tested on: HL-60(TB) leukemia

CCOP(=O)(OCC)c1c(C(=O)OC)cc(=O)[nH]c1-c1ccc(C)cc1
TGI (OVCAR-5 ovarian): 20.5 µM
TGI (KM12 colon): 33.6 µM
TGI (CCRF-CEM leukemia): 6.91 µM
TGI (DU-145 prostate): 17.5 µM
TGI (MOLT-4 leukemia): 20.6 µM
TGI (A549 NSCLC): 31.5 µM
TGI (HT29 colon): 42.1 µM
TGI (UACC-62 melanoma): 20.4 µM
TGI (SNB-75 CNS): 29.3 µM
TGI (ACHN renal): 9.45 µM
TGI (HOP-92 NSCLC): 12.3 µM
TGI (BT-549 breast): 20.3 µM
TGI (NCI-H23 lung): 33.5 µM
TGI (HS 578T breast): 49.1 µM
TGI (MDA-MB-435): 37.4 µM
TGI (MDA-N): > 61.1 µM
TGI (U251 CNS): 29.3 µM
TGI (RPMI-8226 leukemia): 19.8 µM
TGI (SK-MEL-2 melanoma): 32.4 µM
TGI (LOX IMVI melanoma): > 100 µM
TGI (SNB-19 CNS): > 54.3 µM
TGI (IGROV1 ovarian): 20.6 µM
TGI (EKVX NSCLC): 17 µM
TGI (OVCAR-3 ovarian): 25.2 µM
TGI (SF-295 CNS): 40.9 µM
TGI (PC-3 prostate): 34.2 µM
TGI (CAKI-1 renal): 19 µM
TGI (UACC-257 melanoma): 30.1 µM
TGI (SF-539 CNS): 23 µM
TGI (SF-268 CNS): > 52.1 µM
TGI (OVCAR-8 ovarian): > 47.1 µM
TGI (HOP-62 NSCLC): 41.7 µM
TGI (SR leukemia): 11.5 µM
TGI (786-0 renal): > 53.4 µM
TGI (K-562 leukemia): > 78.4 µM
TGI (HCC-2998 colon): 33.5 µM
TGI (COLO 205 colon): 15.2 µM
TGI (MALME-3M melanoma): 19.9 µM
TGI (T-47D breast): 18.1 µM
TGI (NCI-H460 lung): 43.4 µM
TGI (TK-10 renal): 27.9 µM
TGI (SK-MEL-28 melanoma): 34.7 µM
TGI (HCT-15 colon): 27.2 µM
TGI (RXF 393 renal): 27.3 µM
TGI (SK-MEL-5 melanoma): 28.8 µM
TGI (SW-620 colon): 23.5 µM
TGI (UO-31 renal): 13.8 µM
TGI (HCT-116 colon): > 51.1 µM
TGI (MDA-MB-231 breast): 76.3 µM
TGI (NCI-H522 lung): 3.03 µM
TGI (SK-OV-3 ovarian): 49.4 µM
TGI (SN12C renal): > 57 µM
TGI (A498 renal): 53.8 µM
TGI (M14 melanoma): 27.8 µM
TGI (NCI-H226 lung): 29.6 µM
TGI (MCF7 breast): > 49.7 µM
TGI (OVCAR-4 ovarian): 22.5 µM
TGI (NCI/ADR-RES ovarian): > 57.5 µM

O=c1c2c([N+](=O)[O-])cccc2nc2[nH]c3ccccc3n12
TGI (OVCAR-5 ovarian): > 75 µM
TGI (KM12 colon): > 75 µM
TGI (CCRF-CEM leukemia): > 75 µM
TGI (DU-145 prostate): > 75 µM
TGI (MOLT-4 leukemia): > 75 µM
TGI (A549 NSCLC): > 75 µM
TGI (HT29 colon): > 75 µM
TGI (UACC-62 melanoma): > 75 µM
TGI (ACHN renal): 29 µM
TGI (HOP-92 NSCLC): 69 µM
TGI (BT-549 breast): 51.1 µM
TGI (NCI-H23 lung): > 75 µM
TGI (HS 578T breast): > 75 µM
TGI (MDA-MB-435): > 75 µM
TGI (MDA-N): > 75 µM
TGI (U251 CNS): > 75 µM
TGI (RPMI-8226 leukemia): > 75 µM
TGI (SK-MEL-2 melanoma): 42.5 µM
TGI (LOX IMVI melanoma): > 75 µM
TGI (SNB-19 CNS): > 75 µM
TGI (IGROV1 ovarian): 37.1 µM
TGI (EKVX NSCLC): > 75 µM
TGI (OVCAR-3 ovarian): 70.3 µM
TGI (SF-295 CNS): > 75 µM
TGI (PC-3 prostate): > 75 µM
TGI (CAKI-1 renal): 45 µM
TGI (UACC-257 melanoma): > 75 µM
TGI (SF-539 CNS): 25.3 µM
TGI (SF-268 CNS): 62 µM
TGI (OVCAR-8 ovarian): 31 µM
TGI (HOP-62 NSCLC): > 75 µM
TGI (SR leukemia): > 75 µM
TGI (786-0 renal): > 75 µM
TGI (K-562 leukemia): > 75 µM
TGI (HCC-2998 colon): 52.2 µM
TGI (COLO 205 colon): > 75 µM
TGI (MALME-3M melanoma): > 75 µM
TGI (T-47D breast): 63.4 µM
TGI (NCI-H460 lung): > 75 µM
TGI (TK-10 renal): 51.6 µM
TGI (SK-MEL-28 melanoma): > 75 µM
TGI (HCT-15 colon): > 75 µM
TGI (RXF 393 renal): 30.4 µM
TGI (SK-MEL-5 melanoma): > 75 µM
TGI (HL-60(TB) leukemia): > 75 µM
TGI (SW-620 colon): > 75 µM
TGI (HCT-116 colon): > 75 µM
TGI (MDA-MB-231 breast): 31.7 µM
TGI (SK-OV-3 ovarian): 24.6 µM
TGI (SN12C renal): > 75 µM
TGI (A498 renal): > 75 µM
TGI (M14 melanoma): > 75 µM
TGI (NCI-H226 lung): > 75 µM
TGI (MCF7 breast): > 75 µM
TGI (OVCAR-4 ovarian): 23.9 µM
TGI (NCI/ADR-RES ovarian): > 75 µM
